Structures are written as SMILES.

One data set has as its system MAT LyLu. In words: Cytotoxicity GI50 (MTT and thymidine incorporation), MAT LyLu. Type of data set: cell-based. As to conditions: Rattus norvegicus. The method, then: (§1) To confirm this observation, we compared the cytotoxicities of CMT-3 and doxycycline for a panel of common human prostate cancer cell lines. Cytotoxicity was measured using the MTT assay (see above) and a cellular thymidine incorporation assay as described by Lokeshwar et al. (1995a). The 50% growth inhibition (GI50) values obtained using both assays were identical. As shown in the data summarized in Table 3, below, CMT-3 was two- to eight-fold more cytotoxic than doxycycline.
(§2) Growth inhibition was calculated from linear regression of the dose-response curves generated for each experiment using log(dose) vs. cell proliferation (% of control). Correlation coefficient (r) was always ≧0.95 (negative). Results are presented as Mean±SEM of at least three GI50 values calculated from each experiment.
(Dividing cells build labelled thymidine or BrdU into new DNA.)

In a further data set the test system is Dunning MAT LyLu cells. In words: Matrigel invasion assay (Boyden chamber, MTT), MAT LyLu. Type of data set: cell-based, rat. As to the method: In this method, 4×10^5 tumor cells were plated on the top chamber of the Boyden chemotaxis assay chambers (Costar Transwell plates). The bottom side of the chamber was a 12 μm-pore polycarbonate filter layered with 0.5 mm thick layer of Matrigel. The bottom well contained a chemoattractant, a serum-free culture-conditioned medium from FHS 733 cells, a line of human fetal lung fibroblasts (ATCC No. HTB-157). Cancer cells (4×10^5) were plated in the top wells of the plates. Doxycycline or CMTs were diluted in a serum-free medium to 5 μg/mL, and were added to both top and bottom chambers. […] After 48 hr incubation, MTT was added to both the top and bottom wells (0.5 mg/mL), and incubation was continued for 4 hr. Wells were then emptied, and the cells from the undersides of the filter were pooled with those in the bottom wells with a filter tip. The reduced MTT (formazan) from top and bottom wells was solubilized with DMSO overnight, and absorbance (O.D.) at 515 nm was measured. The ratio of the O.D. from the bottom wells to that of the total (i.e., O.D. of top plus bottom wells) was taken as the invasive potential. […] The MTT assay procedure also normalizes the coincident inhibition due to the cytotoxic effects of the agents under investigation. Results presented are from three independent experiments.

Data set [1] in a line: MTS cytotoxicity assay, E-10. As to conditions: human, E-10 clone of MDA-MB-231 breast carcinoma cells, percent cytotoxicity, two days. On the technique in general: Tetrazolium assays rely on reduction of a dye to a coloured formazan, in cell work by metabolically active cells.
Description: A panel of chemically modified tetracycline compounds and doxycycline were tested for cytotoxicity against two carcinomas: COLO 205 (a human colon carcinoma-derived cell line) and the E-10 clone of MDA-MB-231 (a human breast carcinoma-derived cell line). Cytoxicity was measured using a conventional assay for viability with a tetrazolium salt (MTS). Cells were grown in media containing the CMTs at concentrations ranging from 5 μM to 100 μM for two days. The cells were then incubated with the MTS for several hours before removal of the supernatant medium for determination of formazan, which is generated only by the viable cells. Results are expressed as percent cytotoxicity, which is simply the percent decline in measured formazan concentration in the sampled medium.
Another data set concerns PC-3. Briefly: Cytotoxicity GI50 (MTT and thymidine incorporation), PC-3. Type of data set: cell-based. As to conditions: Homo sapiens. As to the method: as §1, §2
Data set [2] relates to Dunning MAT LyLu tumor. Briefly: MAT LyLu tumor growth and lung metastasis, gavage from day of implant. Type of data set: in vivo, Copenhagen rats. The method, then: (§3) Tumor Generation and Treatment: Dunning MAT LyLu cells were harvested from culture flasks, and a 0.5 mL suspension containing from 2×10^5 to 2×10^6 cells/mL was inoculated into the dorsal flank of adult Copenhagen rats (Harlan Sprague Dawley, Indianapolis, Ind.). The rats weighed 250-300 g, and were 90-100 days old. Tumors were detected by palpating the skin around the site of injection starting 3 days following implant of the tumor cells (Lokeshwar et al. 1995a).
(§4) Drug Treatment In Vivo: Doxycycline and CMT-3 were dissolved in a 2% aqueous solution of a soluble form of carboxymethyl cellulose (Sigma Cat. No. C-5678), and a fresh solution was made up daily. Rats were gavaged daily with 1 mL of the drug solution (concentrations specified below), or the vehicle (2% carboxymethyl cellulose). Tumor growth was recorded three times a week, and rats were weighed weekly. The effect of various treatments on tumor growth was monitored over time using calipers, and the volume approximated to an ellipsoid (i.e., volume=length×width×height×0.5236) (Lokeshwar et al. 1993b). Tumor growth rate was determined by regression analysis of tumor volume versus time, for each tumor-bearing rat. Mean tumor growth rate (time to reach a fixed volume) for each treatment group was then used to evaluate the statistical significance of treatment efficacy using the INSTAT statistical program (Ravitz Software, San Diego, Calif.). Rats were euthanized once the tumor volume reached ≧10 cm^3. At that time animals were necropsied, tumors and lungs were removed and fixed in Bouin's fixative. Macroscopic tumor foci on the lungs were counted under a dissecting microscope.
CMT-3 and doxycycline were tested for antitumor activity in vivo. In this series of experiments, daily gavage of drugs was started on the same day on which tumor cells were implanted in the test animals. Tumor growth was initiated by sub cutis injection of 1×10^6 tumor cells.

In a further data set the test system is ALVA 101. In words: Cytotoxicity GI50 (MTT and thymidine incorporation), ALVA 101. Type of data set: cell-based. The conditions noted are these: Homo sapiens. As to the method: as §1, §2
The next data set has as its system TSU PR-1. Briefly: Cytotoxicity GI50 (MTT and thymidine incorporation), TSU PR-1. As to conditions: Homo sapiens, TSU-Pr1. Type of data set: cell-based. As to the method:
as §1, §2

Data set [3] concerns Dunning MAT LyLu tumor. In words: MAT LyLu tumor incidence, growth and metastasis, predosing 7 days before implant. The data set is classed as in vivo, Copenhagen rats. As to conditions: for tumor growth rate (time to reach tumor volume of 3 cm^3): 40 mg/kg predosing, animals with measurable tumors, control 15.9±2.0; for decrease in the number of lung metastases: summary b179, predosing context; for remission of palpable tumors (rats): two separate experiments. The method, then: as §3, §4
In another series of experiments, we examined whether predosing host animals with the drugs would affect tumor growth and metastasis. Daily gavage of control or drugs (doxycycline or CMT-3; 40 mg/kg) was begun 7 days prior to the injections of the MAT LyLu tumor cells (2×10^5 cells/animal) and continued for a total of 21 days.
Tumor growth rates were calculated from thrice-weekly measurement of tumor volume with linear regression analysis of log-transformed volume measurements (Dudak et al. 1996).

Data set [4] relates to C8161 human melanoma cells. In words: In vitro invasion assay (MICS), laminin/collagen IV/gelatin matrix-coated filter. The data set is classed as cell-based. As to conditions: 3, 20 and 50 μg/mL; for Percent Inhibition of invasive potential: 48 hr. As to the method:
The in vitro invasive potentials of the control (DMSO only) and chemically-modified tetracycline treated cells were measured using a modified Boyden chamber as previously described (Membrane Invasion Culture System, MICS). An intervening barrier consisting of a polycarbonate filter containing 10 μm pores (Osmonics, Livermore, Calif.) coated with a defined matrix of human laminin/collagen IV/gelatin (Sigma, St. Louis, Mo.) was used for these studies. […] Doxycycline or individual CMTs were then added to different wells of the chamber at 3, 20 or 50 μg/mL 2 hr post-seeding and daily during the assay. After 48 hr, the cells were removed from the lower wells and the number of invasive cells was determined and compared to the original number of cells seeded into the upper wells. Where appropriate, data were corrected for proliferation during the period of the in vitro assay.

The subject of another data set is LNCaP. In words: Cytotoxicity GI50 (MTT and thymidine incorporation), LNCaP. The data set is classed as cell-based. The conditions noted are these: Homo sapiens. As to the method:
as §1, §2

Another data set relates to BPH-1. In words: Cytotoxicity GI50 (MTT and thymidine incorporation), BPH-1. Type of data set: cell-based. The conditions noted are these: Homo sapiens. As to the method: as §1, §2
Another data set deals with DU 145. In words: Cytotoxicity GI50 (MTT and thymidine incorporation), DU 145. As to conditions: Homo sapiens. The data set is classed as cell-based. As to the method: as §1, §2
[5] abbreviates: 40 mg/kg daily oral gavage from day of implant.

One may read the GI50 as the concentration giving 50% growth inhibition. Read a low GI50 as greater sensitivity of the cells. In the case of `C[C@H]1c2cccc(O)c2C(=O)C2=C(O)[C@]3(O)C(=O)C(C(N)=O)=C(O)[C@@H](N(C)C)[C@@H]3[C@@H](O)[C@@H]21` [Doxycycline, 6α-deoxy-5-hydroxy-tetracycline, reference compound], the concentration for 50% growth inhibition (GI50) in the data set with MAT LyLu was 20 ± 6.4 µM; in the data set with PC-3 it was 36.4 ± 2.5 µM; with ALVA 101, 36.6 ± 2.42 µM; in the data set with TSU PR-1 it was 41 ± 11 µM; with LNCaP, 13.9 ± 2.97 µM; in the data set with BPH-1, 21.3 ± 5.4 µM. The GI50 in the data set on DU 145 stood at 43.6 ± 9.36 µM. In addition, the inhibition at 5 µg/mL in the data set with Dunning MAT LyLu cells (Rattus norvegicus, MAT LyLu, 5 μg/mL, 48 hr, read-out: inhibition of invasive/metastatic potential (Matrigel invasion)) is 68 ± 4.2%. This compound registered a cytotoxicity at 2 days, 5 µM in [1] of 0%. This compound gave a cytotoxicity at 2 days, 10 µM in data set [1] (10 μM) of 0%. The cytotoxicity at 2 days, 20 µM in data set [1] (20 μM) stood at 4.5%. This compound had a cytotoxicity at 2 days, 50 µM in data set [1] (50 μM) of 24.2%. Further, the cytotoxicity at 2 days, 100 µM in data set [1] (100 μM) stood at 29.5%. For the same compound, the “metastatic tumor foci in lungs” value in the data set with Dunning MAT LyLu tumor [2] (20 mg/kg daily oral gavage from day of implant) was determined as 39.7±17.2 MTF/rat; in the data set with Dunning MAT LyLu tumor [2] (setting [5]), 43.6±18.8 MTF/rat. This compound also came in with a tumor incidence with Dunning MAT LyLu tumor [3] (40 mg/kg daily, begun 7 days before implant, separate experiments) greater than 90%. Also, the “tumor growth rate (time to reach tumor volume of 3 cm^3)” value in the data set on Dunning MAT LyLu tumor [3] amounted to 16.7 ± 1.9 days. Moreover, the “decrease in the number of lung metastases” value in the data set with Dunning MAT LyLu tumor [3] is 33±7.0%. Besides, the “remission of palpable tumors (rats)” value with Dunning MAT LyLu tumor [3] is reported as 20%. Moreover, the “Percent Inhibition of invasive potential” value in data set [4] is recorded as 12-79%.

In the case of `NC(=O)C1=C(O)CC2CC3Cc4cccc(O)c4C(=O)C3=C(O)C2(O)C1=O` (stereo not shown) [CMT-3, 6-demethyl-6-deoxy-4-de(dimethylamino)tetracycline], the 50% growth inhibitory concentration (GI50) with MAT LyLu was determined as 5.2 ± 1.9 µM; in the data set on PC-3, 10.6 ± 2.1 µM; with ALVA 101 it was 6.82 ± 0.75 µM; with TSU PR-1, 14.7 ± 2.64 µM; in the data set with LNCaP, 5 ± 2.1 µM; in the data set on BPH-1, 10.5 ± 3.7 µM. In addition, it took 5.06 ± 1.18 µM to inhibit growth with DU 145 by half (GI50). The “effect on invasive potential after pretreatment only” value in the data set on Dunning MAT LyLu cells (48 hour pretreatment, no drug in the invasion chamber) is on record as “only a moderate effect”. Moreover, in the data set on Dunning MAT LyLu cells (MAT LyLu, 5 μg/mL, 48 hr), the “inhibition of invasive/metastatic potential (Matrigel invasion)” value is “equally inhibited”. Further, the cytotoxicity at 2 days, 5 µM in data set [1] was 0%. Also, the “primary tumor growth versus control group (regression analysis of tumor volumes)” value in the data set with Dunning MAT LyLu tumor [2] (20 mg/kg or 40 mg/kg) is on record as “no significant difference”. Besides, the “reduction in MTF relative to the control group” value in the data set with Dunning MAT LyLu tumor [2] (40 mg/kg (10 mg/rat)) is 51%. Also, the “metastatic tumor foci in lungs” value with Dunning MAT LyLu tumor [2] (setting [5]) was 28.9±15.4 MTF/rat. In the data set on Dunning MAT LyLu tumor [2] (control 13.57±2.12 days), the “time from injection of cells to 3 cm^3 tumor” value was found to be 14.0 ± 1.9 days. Besides, the “number of lung metastases” value in the data set on Dunning MAT LyLu tumor [2] (oral gavage daily for 21 days following implant, controls 59.5±13.9) turned out to be 28.9±15.4 sites/animal. For the same compound, in the data set with Dunning MAT LyLu tumor [3], the “tumor growth rate (time to reach tumor volume of 3 cm^3)” value was 20.2 ± 3.5 days. For the same compound, the “tumor incidence lower than control or doxycycline groups by” value with Dunning MAT LyLu tumor [3] (40 mg/kg, predosing) is 55%±18. Moreover, the “tumor remission (inhibition of tumor incidence)” value in the data set with Dunning MAT LyLu tumor [3] (40 mg/kg, predosing) is listed as “tumor remission (inhibition of tumor incidence) occurred”. Moreover, the “gain in body weights” value in the data set on Dunning MAT LyLu tumor [3] (at termination (6-month post-treatment observation), control 3%) was found to be 12%. In addition, the “decrease in MTF versus controls” value with Dunning MAT LyLu tumor [3] (predosing) is reported as 37.5%. Also, in the data set with Dunning MAT LyLu tumor [3] (predosing, animals with tumors ≧10 cm^3, controls 74.2±6.4), the “MTF in treated animals” value came out at 46.3±6.7. In addition, in the data set with Dunning MAT LyLu tumor [3] (preparation of CMT-3 of greater purity), the tumor incidence is 43%. In addition, the “decrease in the number of lung metastases” value with Dunning MAT LyLu tumor [3] came to 58±8%. In addition, the “remission of palpable tumors (rats)” value in the data set with Dunning MAT LyLu tumor [3] is 30%. Moreover, the “Type of Inhibition” value in data set [4] is “dose dependent”. The “Percent Inhibition of invasive potential” value in [4] was 35-74%.

Source of the values: patent US6429204B1, “Method of inhibiting cancer growth” (University of Miami, priority 1997, dated 2002).
